Where “and” joins values, the source holds several entries; their conditions need not be identical. Identical values can stand only once.
Assays:
[1] = test system: hepatic cell death pathways (pyroptosis, necroptosis, apoptosis); assay: Hepatic cell death pathways by Western blot (gasdermin D, cleaved caspase 3, cleaved RIP3); format: in vivo, mouse; settings: liver samples from HFCC/CDX mice, 100 mg/kg QD oral, 2 weeks
Experimental: Compound I-1 and Compound I-32 were tested for their ability to alter hepatic cell death pathways (i.e., pyroptosis, necroptosis, and apoptosis) using liver samples from Example 7. Detection was performed on liver sections obtained from the experiment described in Example 7. Paraffin sections were deparaffinized. Western blot analysis was performed by the We-Met platform. Toulouse. France, France. Commercial primary antibodies for Gasdermin D (reference ab209845; Abcam, Cambridge, UK), cleaved caspase 3 (reference 9664, Cell Signaling Technology. Danvers, Mass.), cleaved receptor interacting protein 3 (RIP3; reference ab56164; Abcam) and actin (reference 4970; Cell Signaling Technology) for control, were used on the WES automated western blot system (Proteinsimple, San Jose, Calif.). Data are presented as mean±SEM, with n=6-10 mice per experimental group, as indicated in the legends. Two-way analysis of variance with Bonferroni post-test. Mann-Whitney U-test, or unpaired two-tailed Student's t-test were used for statistical analysis using GraphPad Prism software (GraphPad Software, La Jolla, Calif.). A P<0.05 was considered significant.

[2] = test system: C57BL/6 mice with UUO; assay: Murine unilateral ureter obstruction (UUO) renal fibrosis model; format: in vivo, mouse; settings: 100 mg/kg daily oral gavage, 9 days after UUO
Experimental: Animal studies were carried out in accordance with the principles of laboratory animal care of the Canadian Council on Animal Care guidelines. Male C57BL/6 mice were obtained from Charles Rivers Laboratories. FIG. 13A summarizes the timeline for this experiment. UUO model was created as follows: male C57BL6J mice (8 weeks old from Charles River Laboratories) were anesthetized with 4% isofluorane and an anesthetic plane was maintained throughout surgery at 1.5-2% isofluorane with 1 L/min oxygen. A 0.5 cm incision was made longitudinally on the left flank. The left ureter and lower pole of the kidney was exposed, and the ureter was ligated with a […] in close proximity to the renal pelvis. A sham operation control group was created by surgical exposure of the left ureter and lower pole of the kidney followed by closure of the incision. Subcutaneous fluids were given (1.5 ml 0.9% NaCl) and the incision was closed with 4′0 silk sutures followed by staples for the skin. Starting the day of model creation, the animals were given a daily dose of either vehicle alone (sham surgery and UUO control, 1.5% CMC and 0.2% Tween-20) or vehicle containing Compound I-32 or Compound I-1 (at 100 mg/kg) by oral gavage for 9 days following surgery. At the end of the treatment period mice were anesthetized prior to euthanasia by bilateral thoraco-abdominal incision. Blood was collected by cardiac puncture, followed by kidney perfusion with cold saline through left ventricular cannulation. The left kidney was removed, a sample taken and fixed in formalin for histological analysis. Trichrome staining was done on formalin-fixed sections (4 μm) following deparaffinization according to manufacturers instructions (Sigma HT15-1KT). Images were quantified by measuring the percentage of positive area using Image J on micrographs captured at ×200 magnification using the BX41 Olympus microscope. Statistical analysis was performed using GraphPad Prism 8. A one-way ANOVA was used to determine significance. A p-value of less than or equal to 0.05 was used as the criterion of significance. This route was selected because it simulates oral administration to mammalian, including human, subjects and ensures that the correct dose of compound is ingested by each animal.
Immunohistochemistry. Formalin-fixed kidneys were embedded in paraffin, then sectioned at 4 μm. After deparaffinization, they were stained with Masson's trichrome to assess collagen content (Sigma Aldrich, catalogue no. HT15-1T), picrosirius red (PSR) to more specifically assess pathogenic collagens I and III (Polysciences, Inc., catalogue no. 24901-500), αSMA as a marker of activated, profibrotic fibroblasts (PIERCE, catalogue no. MA1-06110; 30 min steaming for antigen retrieval, antibody used at 1:5000 for 2 h at room temperature), CD3 to identify T-lymphocytes (Dako, catalogue no. A0452; 30 min steaming for antigen retrieval, antibody used at 1:500 overnight at 4° C.) and F4/80 to identify, macrophages (done by the McMaster Histology Facility). Slides were counterstained with hematoxylin, dehydrated twice with 90% ethanol, cleared twice with xylene, coverslipped with mounting media, and then left to dry overnight before imaging. Masson's trichrome, αSMA, CD3 and F4/80 were imaged under transmitted light and quantified using ImageJ. The Olympus IX81 fluorescence microscope driven by Metamorph was used to image and quantify PSR staining. Images were quantified by measuring the percentage of positive area. All micrographs were captured at ×20 magnification.

[3] = target: T1, human ACLY (Homo sapiens, UniProt P53396); assay: ATP-citrate lyase (ACLY) enzymatic assay (ADP-Glo); format: biochemical; settings: recombinant human ACLY, Run 1-3, read-out: Compound IC50 (M) ACLY
T1 construct: human ACLY (P533%) (Met 1-Met 1101) expressed in Baculovirus-Insect Cells; purchased Sino Biological Inc. 11769-H07B; host or cells: Baculovirus-Insect Cells
Experimental: ATP citrate lyase was obtained from Sino Biological Inc. Cat #11769-H07B, Lot #LC08DE1701. It was prepared from a DNA sequence encoding the human ACLY (P533%) (Met 1-Met 1101) expressed in Baculovirus-Insect Cells, with a polyhistidine tag at the N-terminus. The recombinant human ACLY consists of 1120 amino acids and has a calculated molecular mass of 123 kDa. It migrates as an approximately 110 kDa band in SDS-PAGE under reducing conditions. The enzyme came as a lyophilized powder in sterile 20 mM Tris, 500 mM NaCl, pH 8.0, 10% glycine. Normally 5%-8% trehalose and mannitol are added as protectants before lyophilization. […]
To detect ADP produced from ACL assay, the ADP-Glo™ assay format from Promega, Madison, Wis., was used, to detect the conversion of ATP to ADP. […] This assay is performed in two steps: i) after the ACL-mediated enzymatic reaction that utilizes ATP and produces ADP, ADP-Glo™ Reagent is added to terminate the kinase reaction and deplete the remaining ATP, and ii) the Kinase Detection Reagent is added to convert ADP to ATP and allow the newly synthesized ATP to be measured using a luciferase/luciferin reaction. The light generated, measured in a luminometer, correlates to the amount of ADP generated in the ACL assay, which is indicative of ACL activity. […]

Row | SMILES | hepatic cell death pathways (pyroptosis, apoptosis, necroptosis) by Western blot [1] | T-lymphocyte infiltration (CD3 stain) [2] | UUO-induced increases in Trichrome and αSMA (renal fibrosis) [2] | macrophage infiltration (F4/80 stain) [2] | IC50 [3]
1 | CC(C)(CCCCc1cccc(CCCCC(C)(C)C(=O)O)c1)C(=O)O [Compound I-32, 6-[3-(5-carboxy-5-methylhexyl)-phenyl]-2,2-dimethylhexanoic acid] | significantly repressed pyroptosis and apoptosis cell death pathways with a trend towards necroptosis | no effect on T-lymphocytes | trend to reduction | significantly reduced macrophage infiltration | –
2 | CC(C)(CCCCc1ccc(CCCCC(C)(C)C(=O)O)cc1)C(=O)O [Compound I-1, 6-[4-(5-carboxy-5-methylhexyl)-phenyl]-2,2-dimethylhexanoic acid] | significantly repressed pyroptosis and apoptosis cell death pathways with a trend towards necroptosis | no effect on T-lymphocytes | decreased | significantly reduced macrophage infiltration | –
3 | CC(C)(CCCCc1cccc(CCCCC(C)(C)C(=O)SCCNC(=O)CCNC(=O)[C@H](O)C(C)(C)COP(=O)(O)OP(=O)(O)OC[C@H]2O[C@@H](n3cnc4c(N)ncnc43)[C@H](O)[C@@H]2OP(=O)(O)O)c1)C(=O)O [Compound I-32-CoA, 6-[3-(5-Carboxy-5-methylhexyl)-phenyl]-2,2-dimethylhexanoic acid Coenzyme A Ester] | – | – | – | – | 9.88e-07 M and 1.22e-06 M and 1.44e-06 M
4 | CC(C)(CCCCc1ccc(CCCCC(C)(C)C(=O)SCCNC(=O)CCNC(=O)[C@H](O)C(C)(C)COP(=O)(O)OP(=O)(O)OC[C@H]2O[C@@H](n3cnc4c(N)ncnc43)[C@H](O)[C@@H]2OP(=O)(O)O)cc1)C(=O)O [Compound I-1-CoA, 6-[4-(5-carboxy-5-methylhexyl)-phenyl]-2,2-dimethylhexanoic acid Coenzyme A ester] | – | – | – | – | 3.34e-06 M and 2.28e-06 M and 2.5e-06 M

— patent publication US11730712B2, “Functionalized long-chain hydrocarbon mono- and di-carboxylic acids and derivatives thereof, and their use for the prevention or treatment of disease” (ESPERVITA THERAPEUTICS, INC., priority 2021, dated 2023)
